This is an account of results in patent publication US9655865B2, “Therapeutic treatment for metabolic syndrome, type 2 diabetes, obesity, or prediabetes” (VeroScience, LLC, priority 2002, dated 2017).

Type in all cases: in vivo
Experiment [1] concerns male mice fed a high fat diet. The experiment can be described thus: GBR versus bupropion in high fat diet mice (Example 11). The protocol: The effect of increasing central dopamine neuronal activity versus increasing central dopamine plus norepinephrine neuronal activity on body fat, blood glucose, plasma insulin, and insulin sensitivity was studied in male mice fed a high fat diet from 4 weeks of age until 24 weeks of age. These mice were maintained on this high fat diet while treated with either GBR (20 mg/kg) (a selective dopamine reuptake inhibitor) or bupropion (20 mg/kg) (a dopamine and norepinpehrine reuptake inhibitor) at doses that approximate their 50% maximal effective dose for these functions in vivo in rodents.

Experiment [2] deals with Female mice fed a high fat diet for 20 weeks. The experiment can be described thus: GBR 12909 and FA, alone and combined, 14 days in high fat diet mice (Example 9). The settings on record: for body weight: 2 weeks treatment, normal weight for age matched controls=28 grams, FIG. 15; for plasma insulin levels: compared to lean controls, FIG. 12. As for the experimental part:
Female mice at 4 weeks of age were fed a high fat diet for 20 weeks to induce diabetes and insulin resistance and continued on such diet while treated for 14 days with either GBR 12909 (10 mg/kg), FA (15 mg/kg), GBR 12909 (10 mg/kg) plus FA (15 mg/kg), or vehicle and sacrificed after 14 days of treatment for the analyses of body fat, blood glucose, plasma insulin, and plasma nitric oxide levels. The composite of body fat store level, blood glucose and plasma insulin was reduced the greatest in the GBR/FA group and by a magnitude more than additive of the individual GBR and FA groups combined. Only the GBR/FA group normalized plasma insulin levels. […] This effect was not observed with either GBR or FA treatments alone.

Experiment [3] concerns obese, diabetic mice (ob/ob strain). The experiment can be described thus: GBR 12909 once daily for 14 days in obese, diabetic ob/ob mice (Example 1). The settings on record: 30 mg/kg once daily 14 days. As for the experimental part:
GBR 12909 (1-(2-[bis(4-Fluorophenyl)methoxy]ethyl)-4-(3-phenylpropyl)piperazine dihydrochloride) is a specific dopamine reuptake inhibitor. Systemic administration of GBR 12909 can increase the dopaminergic to noradrenergic neuronal activity in the central nervous system. A study was conducted to determine the effects of GBR 12909 upon blood glucose and plasma free fatty acid levels in obese, diabetic mice (ob/ob strain). The ob/ob mouse is hyperphagic, obese, insulin resistant, diabetic and dyslipidemic due to the absence of functional leptin as a result of a mutation in this gene. Starvation or calorie restriction of these mice leads to increases in plasma free fatty acid levels that can function over the long term to worsen diabetes.
Different groups of obese, diabetic female (ob/ob) mice (body weight of approximately 33 g) maintained on 12 hour daily photoperiods, housed one per cage and allowed to feed ad libitum were randomized to once daily treatment with either a specific dopamine reuptake inhibitor, GBR 12909 at a dose of 30 mg/kg body weight (n=5-7) or vehicle (control group; n=5-7) for a 14 day period. On the fifteenth day of the study and approximately 24 hours after the final treatment animals were sacrificed and blood samples were obtained for the analyses of blood glucose and plasma free fatty acid and triglyceride levels.

The test system of experiment [4] is obese, diabetic female ob/ob mice. The experiment can be described thus: GBR 12909 and clonidine, alone and combined, 14 days in ob/ob mice with mild diabetes (Example 2). The settings on record: GBR 12909 about 20 mg/kg, clonidine about 0.1 mg/kg, once daily 14 days, controls 202+/−41. The protocol:
GBR 12909 is a specific dopamine reuptake inhibitor. Its use can increase the dopaminergic to noradrenergic neuronal activity in the central nervous system. However, by combining GBR 12909 with clonidine, a noradrenergic alpha 2 receptor agonist with preferential affinity for presynaptic alpha 2 sites, it is possible to further increase the dopamine to noradrenaline neuronal activity ratio in the central nervous system. A study was conducted to determine the interactive effects of GBR 12909 and clonidine on blood glucose level in ob/ob mice.
Obese, diabetic female ob/ob mice (body weight of approximately 28 g) with mild diabetes were maintained on 14 hour daily photoperiods, housed one per cage and allowed to feed ad libitum. Different groups of these animals were randomized to once daily treatment with either a specific dopamine reuptake inhibitor, GBR 12909 at an approximate dose of 20 mg/kg body weight (n=4), or clonidine at an approximate dose of 0.1 mg/kg (n=5), these same dosages of GBR 12909 plus clonidine (n=3), or vehicle (control group; n=5-7) for a 14 day period. On the fifteenth day of the study and approximately 24 hours after the final treatment animals were sacrificed and blood samples were obtained for the analyses of blood glucose levels.

In experiment [5] the test system is high fat fed, hypertensive SHR rats. The experiment can be described thus: Quinelorane and fusaric acid, alone and combined, in high fat fed hypertensive SHR rats (Example 5). Particulars: SHR rats on high fat diet; for change from baseline body weight (weight loss): FA 12.5 mg/kg, FIGS. 1 and 2; for blood glucose: FIG. 6. The protocol:
Male SHR rats were maintained on 14 hour daily photoperiods and fed a high fat diet (60% of energy from fat; 5.24 kcal/gram weight) for 3 weeks and then divided into different groups and treated with either quinelorane (Q; a dopamine D2/D3 mixed receptor agonist) (0.075 mg/kg), fusaric acid (FA; a dopamine beta hydroxylase inhibitor) (12.5 mg/kg), quinelorane (0.075 mg/kg) plus FA (Q/FA) (12.5 mg/kg), or vehicle at 13 hours after light onset for 17 days. The doses of Q and FA were set at less than half maximal to effect central dopamine receptor binding functions and dopamine beta hydroxylase activity, respectively. […] Blood pressure measurements were taken at 14 days of treatment and animals were sacrificed at 18 days of treatment for analyses of body fat and humoral factors and metabolites. […] Respecting blood glucose, although both Q and FA reduced glucose level relative to vehicle, only the Q/FA regimen normalized blood glucose in these animals relative to vehicle (FIG. 6).

Experiment [6] deals with obese, diabetic female ob/ob mice. The experiment can be described thus: Fusaric acid and SKF 38393, alone and combined, 14 days in ob/ob mice (Example 4). The settings on record: fusaric acid 15 mg/kg, SKF 38393 10 mg/kg; for retroperitoneal fat pad weight / plasma triglyceride level: 14 days; for retroperitoneal fat pad weight: control 727+/−25; for plasma triglyceride level: controls 155+/−15; for blood glucose: once daily 14 days, controls 380+/−30. As for the experimental part: Fusaric acid is a dopamine beta hydroxylase inhibitor that reduces noradrenaline synthesis in noradrenergic neurons. It is not present in dopaminergic neurons and thus exerts no such effect there. SKF38393 is a post-synaptic dopamine D1 receptor agonist with no marked influence on noradrenergic neurons. A study was conducted to determine the interactive effects of fusaric acid plus SKF 38393 on body fat store levels, and blood glucose and plasma triglyceride levels in ob/ob mice. The ob/ob mouse is hyperphagic, obese, insulin resistant, diabetic and dyslipidemic due to the absence of functional leptin as a result of a mutation in this gene.
Obese, diabetic female ob/ob mice (body weight of approximately 33 g) maintained on 14 hour daily photoperiods, housed one per cage and allowed to feed ad libitum were randomized to once daily treatment with either fusaric acid (15 mg/kg; n=6-8), SKF 38393 (10 mg/kg; n=6-8), both fusaric acid (15 mg/kg) and SKF 38393 (10 mg/kg) (n=6-8), or vehicle (control group; n=6-8) for a 14 day period. On the fifteenth day of the study and approximately 24 hours after the final treatment animals were sacrificed and blood samples were obtained for the analyses of blood glucose, plasma free fatty acid and triglyceride levels. Relative to controls, fusaric acid raised blood glucose from 380+/−30 mg/dl to 430+/−30 mg/dl and SKF 38393 reduced blood glucose to 290+/−55 mg/dl. However, fusaric acid plus SKF 38393 reduced blood glucose to 180+/−20 mg/dl. […] Neither fusaric acid nor SKF 38393 had any effect on retroperitoneal fat pad weight (735+/−43 mg and 735+/−50 mg, respectively versus control value of 727+/−25 mg) however, the combination of fusaric acid plus SKF 38393 reduced retroperitoneal fat pad weight to 680+/−25 mg.

The test system is the same in experiment [7]. The experiment can be described thus: Amphetamine with or without bromocriptine, 14 days in ob/ob mice (Example 3). The settings on record: amphetamine 3 mg/kg. From the text:
Amphetamine is a selective presynaptic dopamine release enhancer. It also acts as a presynaptic noradrenergic release enhancer but at higher dosages that will counter the effect of the dopamine reuptake inhibition activity to improve metabolism. However, addition of a dopamine D2 receptor agonist will act to reduce any amphetamine-induced increase in synaptic noradrenaline level and therefore should produce a more pronounced desired effect on metabolic disease than amphetamine or the D2 receptor agonist alone. A study was conducted to determine the effects of low dose amphetamine (3 mg/kg) with or without the dopamine D2 receptor agonist bromocriptine (5-<10 mg/kg dose) upon body weight gain, blood glucose, plasma free fatty acid and triglyceride levels in obese, diabetic mice (ob/ob strain). […] The ob/ob mouse is hyperphagic, obese, insulin resistant, diabetic and dyslipidemic due to the absence of functional leptin as a result of a mutation in this gene. Starvation or calorie restriction of these mice leads to increases in plasma free fatty acid levels that can function over the long term to worsen diabetes.
On the fifteenth day of the study and approximately 24 hours after the final treatment animals were sacrificed and blood samples were obtained for the analyses of blood glucose, plasma free fatty acid and triglyceride levels.

Experiment [8] deals with Female C57 Black mice fed a high simple sugar/moderate fat diet (western diet). The experiment can be described thus: GBR 12909, FA, clonidine and combinations in C57 Black mice on western diet, body fat (Example 6). Particulars: GBR 25 mg/kg, FA 10 mg/kg, clonidine 0.075 mg/kg, 14 days, FIG. 7.
In experiment [9] the test system is Female obese diabetic mice (ob/ob strain). The experiment can be described thus: Bupropion and FA, alone and combined, 14 days in ob/ob mice (Example 7). The settings on record: bupropion 40 mg/kg, FA 10 mg/kg, FIG. 9. The protocol:
Female obese diabetic mice (ob/ob strain) at 6 weeks of age were fed standard rodent chow and different groups of animals (n=5-7/group) were treated with bupropion (40 mg/kg), FA (10 mg/kg), bupropion (40 mg/kg) plus FA (10 mg/kg), or vehicle for 14 days and then sacrificed for the analyses of blood glucose and body fat store level. […] Moreover, these reductions were more than additive in magnitude relative to the effects of the individual compounds combined.

[10] abbreviates: GBR 12909 10 mg/kg, FA 15 mg/kg, 14 days.
Setting [11] is: relative to vehicle, sacrifice at 18 days.

`Cl.Cl.Fc1ccc(C(OCCN2CCN(CCCc3ccccc3)CC2)c2ccc(F)cc2)cc1` [GBR 12909, 1-(2-[bis(4-Fluorophenyl)methoxy]ethyl)-4-(3-phenylpropyl)piperazine dihydrochloride]: the “body fat (intraabdominal fat pad)” value in experiment [1] (20 mg/kg, compared to vehicle and Bupropion, FIG. 17) is “significantly reduced”. Moreover, the HOMA-IR values result in [1] (20 mg/kg, compared to vehicle and Bupropion, FIG. 19) is “significantly reduced”. Further, the blood glucose entry in experiment [1] (20 mg/kg, relative to vehicle and Bupropion, FIG. 18) is “significantly reduced”; in [2] (GBR 12909 10 mg/kg, FA 15 mg/kg, 14 days, FIG. 11) it was “no significant effect”; in experiment [3] (about 24 h after final treatment, controls 455+/−50), 145 ± 25 mg/dL; in experiment [4], 221 ± 31 mg/dL. Moreover, the “reduction of plasma insulin compared with bupropion” value in [1] (equal dose 20 mg/kg) is “much more effective”. In addition, in [2], the body weight result is “not observed”. Further, the plasma insulin levels entry in [2] (setting [10]) is “significantly higher”. Moreover, in [3], the “reduction of plasma triglyceride level relative to controls” value is reported as “approximately 32%”. The compound further displayed a final body weight in experiment [3] (controls 42+/−2) of 28 ± 0.5 g. For the same compound, the “plasma free fatty acid levels” value in [3] (controls 780+/−40) was found to be 450 ± 20 µM.

Consider `CCCN1CCC[C@@H]2Cc3nc(N)ncc3C[C@H]21` [Q], for which, in experiment [5] (Q 0.075 mg/kg, 17 days), the “desensitization to the effects on weight loss” value is “exhibited desensitization” and the “change from baseline body weight (weight loss)” value is on record as “modest if any effects”. Moreover, the blood glucose result in experiment [5] (relative to vehicle) is listed as “reduced”. In [5] (setting [11]), the “plasma endothelin-1 (endothelin 1-21 fragment)” value was “no significant effect” and the plasma nitric oxide result is “no significant effect”.

With `Cl.Oc1cc2c(cc1O)C(c1ccccc1)CNCC2` (centres unmarked) [SKF 38393, 1-phenyl-7,8-dihydroxy-2,3,4,5-tetrahydro-1H-3-benzazepine hydrochloride], in [6], the “retroperitoneal fat pad weight” value was 735 ± 50 mg, the plasma triglyceride level was 130 ± 7 mg/dL and the blood glucose was determined as 290 ± 55 mg/dL.

Take `CC(N)Cc1ccccc1` (centres unmarked) [amphetamine]: in [7] (14 days, controls 900+/−100), the “plasma free fatty acid levels” value came to 510 ± 30 µM. The final body weight result in [7] (bromocriptine 5-<10 mg/kg, 14 days, controls 44+/−1) is “no effect”. Moreover, the plasma triglyceride levels in experiment [7] (bromocriptine 5-<10 mg/kg, 14 days, controls 175+/−21) came out at 70 ± 7 mg/dL. In addition, in experiment [7] (bromocriptine 5-<10 mg/kg, once daily 14 days, controls 422+/−46), the blood glucose stood at 348 ± 22 mg/dL.

As to `Clc1cccc(Cl)c1NC1=NCCN1` [clonidine, 2-(2,6-dichloroanilino)-2-imidazoline], the blood glucose in experiment [4] was 250 ± 35 mg/dL. The “body fat store level (intraabdominal fat pad)” value in experiment [8] is on record as “no effect”.

`CCCCc1ccc(C(=O)O)nc1` [fusaric acid, 5-butyl-2-pyridinecarboxylic acid]: the “retroperitoneal fat pad weight” value in experiment [6] stood at 735 ± 43 mg. For the same compound, in experiment [6], the plasma triglyceride level was 170 ± 27 mg/dL. Also, the blood glucose in [6] is 430 ± 30 mg/dL; in experiment [5] (relative to vehicle), “reduced”; in experiment [9] it was “no significant effect”. The body weight result in experiment [2] was “not observed”. Besides, the plasma insulin levels result in [2] (setting [10]) is “significantly higher”. For the same compound, the “change from baseline body weight (weight loss)” value in experiment [5] (Q 0.075 mg/kg, 17 days) is on record as “modest if any effects”. For the same compound, in experiment [5] (setting [11]), the “plasma C-reactive protein (CRP) levels” value is listed as “no significant effect”.
